Values of other authors in patent US6777448B2, “Veterinary compositions for the treatment of parasitic diseases” (New Pharma Research Sweden AB, priority 2000, dated 2004).
Read-outs that look alike come from different tables or passages of the source.

Tests used:
[1] = delivered via injection as such
[2] = bloodstream of animals
[3] = given orally

Structure (SMILES): O=C(Nc1ccc(Oc2ccc(Cl)cc2)c(Cl)c1)c1cc(I)cc(I)c1O [rafoxanide, 3′-chloro-4′-(4-chlorophenoxy)-3,5-di-iodosalicylanilide]
- irritation on injection [1]: irritating
- binding to protein in the blood [2]: bind strongly to protein in the blood
- persistence in the bloodstream [2]: persist in the bloodstream of animals
- absorption ([3]; non-gastric species): 10%
- absorption ([3]; ruminants): up to 50%
- solubility (in a 1% surface-active agent composition): 0.14%
- solubility in water (water at 25° C.): approximately 0.005 % weight/volume
